Reference: paper PMC7336998, “Discovery of secondary sulphonamides as IDO1 inhibitors with potent antitumour effects in vivo” (Journal of Enzyme Inhibition and Medicinal Chemistry, 2020)
“Also recorded” adds a separate entry of the source.

Key:
[1] = system: naïve CD4+ T cells co-cultured with B16F1 melanoma cells; experiment: T cell proliferation in B16F1-T cell co-culture (MTT); assay type: cell-based, mouse; conditions: 18 μM
Experimental: (§1) The main bioassays performed in the study, including HeLa cell-based IDO1/kynurenine assay, Western blot analysis, T cell proliferation and Treg cell differentiation experiments, were carried out as described previously.
T lymphocytes are exceedingly sensitive to low tryptophan levels. Overactivation of the kynurenine pathway by high IDO1 expression leads to local tryptophan depletion, which can suppress T cell proliferation by activating the GCN2 kinase pathway and eventually result in T cell anergy. Here, to determine whether secondary sulphonamides could rescue IDO1-mediated blockade of T cell proliferation, we used a co-culture of IDO1-expressing B16F1 melanoma cells with naïve CD4^+ T cells to mimic the tumour microenvironment. Given that melanoma is a highly immunogenic tumour and IDO1 constitutively expresses in melanoma cells, B16F1 murine melanoma cell lines that express IDO1 were then used to co-culture with T cells. Naïve CD4^+ T cells were isolated from spleens of C57BL/6 mice.
Figure 4. Compounds 5d and 8 g could promote the proliferation of T cells. Based on the B16F1-T cell co-culture system, use MTT assay to test T cells proliferation. The Navoximod and compounds were added to the system at the concentration of 1.5 and 18 μM. Data represent mean ± SEM (n = 3).

CT26 colon carcinoma = CT26 colon carcinoma xenograft in immunocompetent BALB/c mice (tumour growth, H&E, IHC, TUNEL, spleen FACS); assay type: in vivo
Experimental: BALB/c mice (6–8 weeks old, 18–22 g) were supplied by Model Animal Research Centre of Nanjing University (Nanjing, China). Mice were maintained under standard specific-pathogen-free (SPF) conditions (21 ± 2 °C and 12-h light: dark cycle). Animal welfare and experimental procedures were carried out strictly in accordance with the Guide for the Care and Use of Laboratory Animals (The Ministry of Science and Technology of China, 2006) and the related ethical regulations of our university. All efforts were made to minimise animals’ suffering and to reduce the number of animals used. Mouse colon cancer cells (CT26) and melanoma cells (B16F1) were cultured and collected by centrifugation (1000 rpm, 5 min) and washed twice with ice-cold PBS. Then cells were diluted to 1 × 10^7/ml and 1 × 10^6 CT26/B16F1 cells (in 0.1 ml PBS) were injected subcutaneously into the right flanks of mice. All mice formed tumours three days after injection. Then mice were randomly distributed into five groups (n = 10/8) according to tumour volumes. 5d ([…], 12.5 mg/kg) were administered (i.g) to each group respectively every day. 5-FU (25 mg/kg) and Cis-platinum (1 mg/kg) were administered (i.p) every three days. Tumour length and tumour width were measured with a Vernier calliper every three days. Tumour volumes were measured and calculated using the equation volume = a × b^2/2, where “a” is the maximal […] and “b” is maximal orthogonal width. After the administration were completed, mice were weighed, euthanized, and tumours were removed and the weight were taken.
For immunohistochemistry staining, the sections were deparaffinized, rehydrated, and washed in 1% PBS-Tween 20, and then treated with 2% hydrogen peroxide, blocked with 3% goat serum (Life Technology, 16210–064) and incubated for 2 h at room temperature with specific primary antibodies. Then the slides were incubated with streptavidin-HRP (Shanghai Gene Company, GK500705) for 40 min, then stained with DAB (Shanghai Gene Company, GK500705) substrate and counter-stained with haematoxylin. Images were acquired by microscopy (Olympus IX51).
Given that it was the most prominent inhibitor in vitro, we chose compound 5d for further pharmacodynamic evaluation in vivo. Bowel cancer is the third leading cause of cancer in the world, thus we first evaluated the efficacy of compound 5d on the growth of murine CT26 colon carcinoma xenograft model in immunocompetent BALB/c mice. Fluorouracil (5-FU) is one of the most commonly used drugs to different cancers including bowel cancer, and was used as the positive control. The CT26 tumour-bearing mice were treated with 5d (3.125, 6.25, 12.5 mg/kg, i.g, every day) or 5-FU (25 mg/kg, i.p, […]). Tumour volumes were measured every two days for 14 days.
Figure 7. Compound 5d suppressed colon cancer growth in immunocompetent mice. 1 × 10^6 CT26 cells were transplanted subcutaneously into the armpit of the BALB/c mice. Three days after transplantation, mice were randomly allocated to vehicle control or treatment groups (n = 10). Drugs were administered on days 1–14. Tumour volume (A) and mice body weight (B) were recorded. After sacrifice, solid tumours were separated and weighed (C, D). Data represent mean ± SEM, n = 10, *p < 0.05, **p < 0.01 vs vehicle.
In order to further observe morphological changes in tumour tissues after administration of compound 5d, the tumour tissue sections obtained from the BALB/c mice bearing CT26 colorectal tumours were stained with haematoxylin-eosin (H&E) to highlight different tissue structures, such as the nucleus and cytoplasm.
Then, to understand the mechanism of tumour cell death, we detected the level of proliferating cell nuclear antigen (PCNA) protein and tumour cell apoptosis by immunohistochemistry (IHC) and terminal deoxynucleotidyl transferase dUTP nick end labelling (TUNEL) experiments, respectively. […]

IDO1 = target: T1, IDO1 (Homo sapiens, UniProt P14902); experiment: HeLa cell-based IDO1/kynurenine assay
T1 construct: a human cervical cancer cell line HeLa that endogenously expresses IDO1 upon IFN-γ treatment; endogenous in cells; host or cells: HeLa cells treated with human IFN-γ
T1 sequence (P14902 whole entry): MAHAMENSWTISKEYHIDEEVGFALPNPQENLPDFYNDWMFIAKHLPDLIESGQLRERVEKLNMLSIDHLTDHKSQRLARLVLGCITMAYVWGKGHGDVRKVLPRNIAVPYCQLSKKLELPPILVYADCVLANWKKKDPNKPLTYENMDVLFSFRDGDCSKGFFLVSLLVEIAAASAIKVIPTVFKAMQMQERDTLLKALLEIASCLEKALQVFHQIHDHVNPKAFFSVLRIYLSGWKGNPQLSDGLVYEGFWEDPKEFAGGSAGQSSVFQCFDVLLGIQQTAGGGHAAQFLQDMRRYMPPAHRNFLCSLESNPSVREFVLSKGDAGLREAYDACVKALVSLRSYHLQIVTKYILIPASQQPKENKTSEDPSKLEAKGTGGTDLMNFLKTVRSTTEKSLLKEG
Experimental: as §1
It is well known that IDO1 is broadly expressed in human cancers and is induced by pro-inflammatory cytokines, such as interferon gamma (IFN-γ) and tumour necrosis factor alpha (TNF-α)[41]. Here we utilised a human cervical cancer cell line HeLa that endogenously expresses IDO1 upon IFN-γ treatment to evaluate the IDO1 inhibitory activity of the synthesised compounds by measuring kynurenine secreted into the media. […] Thus, we also employed this cellular assay to detect false positive IDO1 inhibitors and cytotoxic compounds by measuring HeLa cell viability. Clinical candidate navoximod was used as an assay control.

[2] = BALB/c mice, 12.5 mg/kg i.g, every day, 14 days
[3] = CT26 tumour tissue, BALB/c mice, 3.125-12.5 mg/kg i.g

C=CC(=O)Nc1ccc(S(=O)(=O)NCc2cccc(Cl)c2)cc1 [5d, N-(4-(N-(3-Chlorobenzyl)sulfamoyl)phenyl)acrylamide]
T cell proliferation [1]: significant augmentation on T cell activity; also recorded: better enhancement of T cell proliferation than navoximod | body weight of the mice (CT26 colon carcinoma; 14-day treatment, vs vehicle group): no significant change in body weight | reduction of average tumour weight (CT26 colon carcinoma; [2]): 37.5% | reduction of tumour volume (CT26 colon carcinoma; [2]): 35.9% | tumour growth (CT26 colon carcinoma; BALB/c mice, 3.125, 6.25, 12.5 mg/kg, i.g, every day, 14 days, vs vehicle): significantly suppressed the growth of tumour in a dose-dependent manner | number of tumour cells (H&E staining) (CT26 colon carcinoma; [3]): decreased the number of tumour cells | tumour cell apoptosis (TUNEL) (CT26 colon carcinoma; [3]): significantly induced the tumour cell apoptosis in a dose-dependent manner | expression of IFN-γ (IHC) (CT26 colon carcinoma; CT26 tumour tissue, BALB/c mice, 3.125-12.5 mg/kg i.g, vs vehicle): increased the expression of IFN-γ in a dose-dependent manner | granzyme B levels (IHC) (CT26 colon carcinoma; CT26 tumour tissue, BALB/c mice, all doses): elevated granzyme B levels | FoxP3+ Treg cells in spleen (FACS) (CT26 colon carcinoma; CT26 tumour-bearing mice, 3.125 mg/kg): 4.79% | FoxP3+ Treg cells in spleen (FACS) (CT26 colon carcinoma; CT26 tumour-bearing mice, 6.25 mg/kg): 4.13% | FoxP3+ Treg cells in spleen (FACS) (CT26 colon carcinoma; CT26 tumour-bearing mice, 12.5 mg/kg): 2.62% | number of FoxP3+ Treg cells in spleen (in words) (CT26 colon carcinoma; CT26 tumour-bearing mice, 3.125-12.5 mg/kg): decreased the number of FoxP3^+ Treg cells in a dose-dependent manner | reduction of FoxP3+ Treg cells compared with the vehicle group (CT26 colon carcinoma; spleen, high dose group): 2.4 fold | IC50 (IDO1; HeLa cells, IFN-γ induced IDO1, kynurenine readout): 6.26 µM | inhibition at 30 µM (IDO1; percentage inhibition at 30 μM, IFN-γ-treated HeLa cells, kynurenine in media): 91.1%
